# Results from patent US20090181110A1, “Compositions from Garcinia as Aromatase Inhibitors for Breast Cancer Chemoprevention and Chemotherapy” (THE OHIO STATE UNIVERSITY RESEARCH FOUNDATION, priority 2007, published 2009).
# Several values for one entry are separate records, joined by “and”; a condition that tells them apart may be missing. Equal entries are not always repeated. Where two headings read alike, the source gives them in different places.
# Columns and labels:
# [1] = target: T1, aromatase (human placental microsomes) (Homo sapiens, UniProt P11511); test: Noncellular, enzyme-based, microsomal aromatase bioassay; format: biochemical; settings: for Noncellular Bioassay PCA 20 μg/mL: percent control activity; for IC50: six concentrations 1-100 μM;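 for all read-outs here: aromatase activity read as tritiated water release by scintillation counting after 15 min at 37 °C, relative to DMSO vehicle, with boiled microsomes giving background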
# T1 construct: Microsomes were obtained from the remaining tissue as described; from tissue; host or cells: human term placenta (microsomal fraction)
# T1 sequence (P11511 1-503): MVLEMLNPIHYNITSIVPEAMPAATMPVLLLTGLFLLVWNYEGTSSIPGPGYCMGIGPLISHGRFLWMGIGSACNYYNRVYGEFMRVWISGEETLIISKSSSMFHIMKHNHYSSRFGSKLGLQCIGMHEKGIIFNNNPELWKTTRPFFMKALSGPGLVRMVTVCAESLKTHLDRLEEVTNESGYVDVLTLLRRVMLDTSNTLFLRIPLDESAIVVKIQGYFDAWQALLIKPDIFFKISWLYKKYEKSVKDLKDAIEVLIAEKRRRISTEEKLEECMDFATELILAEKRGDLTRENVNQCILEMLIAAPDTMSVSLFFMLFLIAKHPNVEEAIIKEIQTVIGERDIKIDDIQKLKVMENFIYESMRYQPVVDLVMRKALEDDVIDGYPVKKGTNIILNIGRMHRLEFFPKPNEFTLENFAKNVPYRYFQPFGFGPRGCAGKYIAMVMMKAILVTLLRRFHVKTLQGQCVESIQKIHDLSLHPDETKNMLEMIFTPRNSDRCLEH
# SK-BR-3 cells = test: SK-BR-3 cell-based cytotoxicity bioassay (MTT cell viability); set-up: species or system human; settings: 50 μM
# [2] = target: T2, aromatase in SK-BR-3 cells (Homo sapiens, UniProt P11511); test: SK-BR-3 cell-based aromatase bioassay
# T2 construct: SK-BR-3 hormone-independent human breast cancer cells that overexpress aromatase; endogenous in cells; host or cells: SK-BR-3 human breast cancer cells
# T2 sequence (P11511 1-503): T1 sequence (P11511 1-503)
# quinone reductase = test: Quinone reductase (QR) induction assay in Hepa 1c1c7 cells; format: cell-based, murine
# Source text: Thus compound 21 is a candidate for use as a cancer chemopreventive agent.
# [3] = Peroxynitrite scavenging activity, SIN-1-derived ONOO−
# Protocol: (§1) ONOO-scavenging activity was measured by monitoring the oxidation of nonfluorescent DHR 123 to highly fluorescent rhodamine 123 using the modified method of Kooy et al. Briefly, DHR 123 (5 mM) in EtOH, purged with nitrogen, was stored at −80° C. as a stock solution. This solution was not exposed to light, prior to the study. The rhodamine buffer (pH 7.4) consisted of 50 mM sodium phosphate dibasic, 50 mM sodium phosphate monobasic, 90 mM sodium chloride, 5 mM potassium chloride, and 100 μM DTPA. The final concentration of DHR 123 was 5 μM. The buffer in this assay was prepared before use and placed on ice. The concentrations of compounds tested were in the range from 0.2 to 100 μM in 10% DMSO. The background and final fluorescent intensities were measured 5 min after treatment with and without the addition of authentic ONOO— in 0.3 N sodium hydroxide (10 μM) or SIN-1 in deionized water (10 μM). DHR 123 was oxidized rapidly by ONOO—, superoxide anion (O2.-), and nitric oxide (NO.). The fluorescence intensity of oxidized DHR 123 was measured with an LS55 luminescence spectrometer (Perkin-Elmer, Boston, Mass.) at the excitation and emission wavelengths of 480 and 530 nm, respectively. […] DL-Penicillamine was used as a positive control.
# [4] = Peroxynitrite scavenging activity, authentic ONOO−
# Protocol: as §1
# [5] = system: DMBA-induced preneoplastic lesions; test: Mouse mammary organ culture (MMOC) assay; format: cell-based; settings: for percent inhibition of DMBA-induced preneoplastic lesions: 10 μg/mL
# Protocol: This assay was carried out according to an established protocol disclosed in the art. In brief, 4-week-old BALB/c female mice (Charles River, Wilmington, Mass.) were pretreated for 9 days with 1 μg of estradiol and 1 mg of progesterone. On the 10th day, the mice were sacrificed and the second pair of thoracic mammary glands was dissected on silk and transferred to 60 mm culture dishes containing 5 mL of Waymouth's 752/1 MB medium supplemented with streptomycin, penicillin, and L-glutamine. The glands were incubated for 10 days (37° C., 95% O2 and 5% CO2) in the presence of growth-promoting hormones (5 μg of insulin, 5 μg of prolactin, 1 μg of aldosterone, and 1 μg of hydrocortisone per milliliter of medium). Glands were exposed to 2 μg/mL 7,12-dimethylbenz[a]anthracene (DMBA) between 72 and 96 h. After their exposure, glands were rinsed and transferred to new dishes with fresh medium. The fully differentiated glands were then permitted to regress by withdrawing all hormones except insulin for 14 additional days. Test compounds were present in the medium during days 1-10 of culture; mammary glands were scored for the incidence of lesions.
# [6] = system: preneoplastic lesions (aberrant crypt foci); settings: recent work, background statement, cited from earlier work
# [7] = system: DMBA-induced preneoplastic lesions; settings: background statement; cited from earlier work
compound,measurement,setting,value
garcinone E [Compound 7],"aromatase inhibiting activity, in words",[1],greatest aromatiase inhibiting activity
same,Noncellular Bioassay PCA 20 μg/mL,[1],23.9 PCA
same,IC50,[1],25.1 µM
same,Cytotoxicity % cell surv.,SK-BR-3 cells,52.3%
same,Cell-based Bioassay PCA 50 μM,[2],32.3 PCA
"CC(C)=CCc1c(O)ccc2oc3cc4c(c(O)c3c(=O)c12)CC(C(C)(C)O)O4 (stereo not drawn) [Compound 22, 2,3-dihydro-4,7-dihydroxy-2-(2-hydroxypropan-2-yl)-6-(3-methylbut-2-enyl)furo[3,2-b]xanthen-5-one]",CD (concentration required to double QR induction activity),quinone reductase,2.2 µg/mL
CC(C)=CCc1cc(/C=C/C(=O)c2ccc3c(c2O)C=CC(C)(C)O3)ccc1O [paratocarpin B],"aromatase inhibiting activity, in words",[1],show results that are supportive of these compounds having utility as aromatase inhibitors
8-deoxygartanin [Compound 4],Noncellular Bioassay PCA 20 μg/mL,[1],82.6 PCA
"CC(C)=CCC/C(C)=C/Cc1c(O)cc2oc3c(O)ccc(O)c3c(=O)c2c1O [Compound 13, smeathxanthone A]",Noncellular Bioassay PCA 20 μg/mL,[1],80.8 PCA
same,"antioxidant activity, in words (SIN-1-derived ONOO−)",[3],potent antioxidant activity
same,"antioxidant activity, in words (authentic ONOO−)",[4],potent antioxidant activity
"COc1c(O)cc2oc3cc(O)c(CC=C(C)C)c(O)c3c(=O)c2c1CCC(C)(C)O [Compound 6, garcinone D]","aromatase inhibiting activity, in words",[1],greatest aromatiase inhibiting activity
same,Noncellular Bioassay PCA 20 μg/mL,[1],10.0 PCA
same,IC50,[1],5.16 µM and 5.2 µM
same,Cytotoxicity % cell surv.,SK-BR-3 cells,89.4%
same,Cell-based Bioassay PCA 50 μM,[2],50.7 PCA
"COc1c(O)cc2oc3cc4c(c(O)c3c(=O)c2c1CC=C(C)C)C=CC(C)(C)O4 [Compound 24, mangostanin]",CD (concentration required to double QR induction activity),quinone reductase,0.95 µg/mL
COc1ccc([C@@H]2COc3c(ccc4c3C=CC(C)(C)O4)C2)c(O)c1 [4′O-methylglabridin],"aromatase inhibiting activity, in words",[1],show results that are supportive of these compounds having utility as aromatase inhibitors
cudraxanthone G [Compound 3],Noncellular Bioassay PCA 20 μg/mL,[1],57.8 PCA
"CC(C)=CCc1c(O)cc2oc3ccc4c(c3c(=O)c2c1O)C(O)C(C(C)(C)O)O4 (stereo not drawn) [Compound 21, 1,2-dihydro-1,8,10-trihydroxy-2-(2-hydroxypropan-2-yl)-9-(3-methylbut-2-enyl)furo[3,2-a]xanthen-11-one]",CD (concentration required to double QR induction activity),quinone reductase,1.3 µg/mL
"N#Cc1ccc(C(c2ccc(C#N)cc2)n2cncn2)cc1 [LET, Letrozole, reference compound]",Cell-based Bioassay PCA (positive control),[2]; 10 nM letrozole,7.4 PCA
"CC(C)=CCc1c(O)cc2oc3c(CC=C(C)C)c(O)c4c(c3c(=O)c2c1O)C=CC(C)(C)O4 [Compound 14, tovophyllin A]",Noncellular Bioassay PCA 20 μg/mL,[1],74.7 PCA
"O=C(/C=C/c1ccc(O)cc1)c1ccc(O)cc1O [isoliquiritigenin, reference compound]",CD (concentration required to double QR induction activity),quinone reductase,1.1 µg/mL
1-isomangostin [Compound 9],Noncellular Bioassay PCA 20 μg/mL,[1],52.6 PCA
"COc1c(O)cc2oc3cc(O)c(CC=C(C)C)c(O)c3c(=O)c2c1CC=C(C)C [Compound 10, α-mangostin]",IC50 in dose-response MMOC assay,[5],1.0 µg/mL
same,percent inhibition of DMBA-induced preneoplastic lesions,[5],57.1%
same,IC50,"[5]; same value in μM, read-out: IC50 in dose-response MMOC assay",2.44 µM
same,"aromatase inhibiting activity, in words",[1],greatest aromatiase inhibiting activity
same,Noncellular Bioassay PCA 20 μg/mL,[1],22.2 PCA
same,IC50,[1],20.7 µM
same,"antioxidant activity, in words (SIN-1-derived ONOO−)",[3],potent antioxidant activity
same,Cytotoxicity % cell surv.,SK-BR-3 cells,18.4%
same,"antioxidant activity, in words (authentic ONOO−)",[4],potent antioxidant activity
same,"inhibition of preneoplastic lesions in colon carcinogenesis model, in words",[6],suppress the carcinogen-induced formation of aberrant crypt foci
same,"inhibition of preneoplastic lesions in colon carcinogenesis model, in words",[6]; listed as crude α-mangostin (10) preparation,efficacy in inhibiting preneoplastic lesions
same,"alveolar duct formation in mouse mammary organ culture model, in words",[7],inhibit alveolar duct formation
same,Cell-based Bioassay PCA 50 μM,[2],59.4 PCA
"CC(C)=CCc1c(O)cc2oc3ccc(O)c(CC=C(C)C)c3c(=O)c2c1O [Compound 23, 1,3,7-trihydroxy-2,8-di-(3-methylbut-2-enyl)xanthone]",CD (concentration required to double QR induction activity),quinone reductase,0.68 µg/mL
"CC(C)=CCC/C(C)=C/Cc1c(O)cc2oc3c(O)cccc3c(=O)c2c1O [Compound 12, mangostinone]",Noncellular Bioassay PCA 20 μg/mL,[1],78.8 PCA
"CC(C)=CCc1c(O)c(CC=C(C)C)c2oc3c(O)ccc(O)c3c(=O)c2c1O [Compound 8, gartanin]",Noncellular Bioassay PCA 20 μg/mL,[1],75.9 PCA
"CC(C)=CCc1c(O)cc2oc3cc(O)c(O)c(CC=C(C)C)c3c(=O)c2c1O [Compound 11, γ-mangostin]",percent inhibition of DMBA-induced preneoplastic lesions,[5],42.9%
same,"aromatase inhibiting activity, in words",[1],greatest aromatiase inhibiting activity
same,Noncellular Bioassay PCA 20 μg/mL,[1],4.7 PCA
same,IC50,[1],6.88 µM and 6.9 µM
same,"antioxidant activity, in words (SIN-1-derived ONOO−)",[3],potent antioxidant activity
same,"antioxidant activity, in words (authentic ONOO−)",[4],potent antioxidant activity
same,IC50,[2],4.97 ± 1.9 µM
same,Cell-based Bioassay PCA 50 μM,[2],−0.5 PCA
8-hydroxycudraxanthone G [Compound 1],Noncellular Bioassay PCA 20 μg/mL,[1],55.1 PCA
same,"antioxidant activity, in words (SIN-1-derived ONOO−)",[3],potent antioxidant activity
same,"antioxidant activity, in words (authentic ONOO−)",[4],potent antioxidant activity
